# Measured values published in US20250185657A1, “PEST CONTROLLING AGENT” (priority 2022, published 2025).
# Key:
# Assay type in all cases: in vivo
# [1] = system: Cotton Aphid (Aphis gossypii); assay: Cotton aphid control test (leaf piece application treatment); details: 120 h, sprayed on cucumber leaf piece, nymphs, five days after the treatment, 25° C., read-out: insect mortality rate
# Experimental: (§1) The insect mortality rate and the feeding damage prevention effect shown in the Biological Test Examples were calculated based on the following expression.
# Biological Test Example 1: Cotton Aphid (Aphis gossypii) Control Test (Leaf Piece Application Treatment)
# A cucumber leaf was cut into a piece having a diameter of 3.5 cm and placed on absorbent cotton moistened with water. Two adult cotton aphids were released thereon, and allowed to lay nymphs for 24 hours, and then the adults were removed. 2 mL of a diluted solution of the test compound diluted to 200 ppm was applied onto the resulting cucumber leaf by using an spray tower. The cucumber leaf was air-dried and then placed in a plastic cup together with the absorbent cotton, the cup was covered with a lid, and the nymphs were reared in a constant temperature chamber at 25° C.
# [2] = system: Diamondback Moth (Plutella xylostella); assay: Diamondback moth control test (leaf piece dipping treatment); details: 120 h, cabbage leaf piece dipped, third instar, five days after the treatment, 25° C., read-out: insect mortality rate
# Experimental: as §1
# Biological Test Example 3: Diamondback Moth (Plutella xylostella) Control Test (Leaf Piece Dipping Treatment)
# (§2) A cabbage leaf was cut into a piece having a diameter of 5.0 cm, and this cabbage leaf piece was immersed in 20 mL of a diluted solution of the test compound diluted to 200 ppm, and air-dried. After air-drying, the cabbage leaf piece was placed in a plastic cup, 10 third instar diamondback moth nymphs were released thereinto, the cup was covered with a lid, and the nymphs were reared in a constant temperature chamber at 25° C.
# [3] = system: Tobacco Cutworm (Spodoptera litura); assay: Tobacco cutworm control test (leaf piece dipping treatment); details: 120 h, cabbage leaf piece dipped, second instar larvae, five days after the treatment, 25° C., read-out: insect mortality rate
# Experimental: as §1
# Biological Test Example 5: Tobacco Cutworm (Spodoptera litura) Control Test (Leaf Piece Dipping Treatment)
# as §2, with “5 second” for “10 third”, “tobacco cutworm larvae” for “diamondback moth nymphs”, “larvae” for “nymphs”
Compound,mortality at 200 ppm [1] [%],mortality at 200 ppm [2] [%],mortality at 200 ppm [3] [%]
"CCS(=O)(=O)c1cc(-c2ccc(F)cc2)cnc1-c1noc(=O)n1-c1ccc(C(F)(F)F)cn1 [Compound 2, 3-(3-(ethylsulfonyl)-5-(4-fluorophenyl)pyridin-2-yl)-4-(5-(trifluoromethyl)pyridin-2-yl)-1,2,4-oxadiazol-5(4H)-one]",≥ 80,≥ 80,≥ 80
"CCS(=O)(=O)c1cc(-c2ccc(OC(F)(F)F)cc2)cnc1-c1noc(=O)n1-c1ccc(C(F)(F)F)cn1 [Compound 4, 3-(3-(ethylsulfonyl)-5-(4-(trifluoromethoxy)phenyl)pyridin-2-yl)-4-(5-(trifluoromethyl)pyridin-2-yl)-1,2,4-oxadiazol-5(4H)-one]",≥ 80,≥ 80,≥ 80
"CCS(=O)(=O)c1cc(-c2ccc(F)cc2)cnc1C1=NOCN1c1ccc(C(F)(F)F)cn1 [Compound 27, 3-(3-(ethylsulfonyl)-5-(4-fluorophenyl)pyridin-2-yl)-4-(5-(trifluoromethyl)pyridin-2-yl)-4,5-dihydro-1,2,4-oxadiazole]",–,≥ 80,≥ 80
"CN(C)S(=O)(=O)c1cc(-c2ccc(OC(F)(F)F)cc2)cnc1-c1noc(=O)n1-c1ccc(C(F)(F)F)cn1 [Compound 195, N,N-dimethyl-2-(5-oxo-4-(5-(trifluoromethyl)pyridin-2-yl)-4,5-dihydro-1,2,4-oxadiazol-3-yl)-5-(4-(trifluoromethoxy)phenyl)pyridine-3-sulfonamide]",–,≥ 80,≥ 80
"CCS(=O)(=O)c1cc(-c2ccc(F)cc2)cnc1-c1noc(=S)n1-c1ccc(C(F)(F)F)cn1 [Compound 18, 3-(3-(ethylsulfonyl)-5-(4-fluorophenyl)pyridin-2-yl)-4-(5-(trifluoromethyl)pyridin-2-yl)-1,2,4-oxadiazol-5(4H)-thione]",≥ 80,≥ 80,≥ 80
"CCS(=O)(=O)c1cc(-c2ccc(F)cc2)cnc1C1=NOCCN1c1ccc(C(F)(F)F)cn1 [Compound 29, 3-(3-(ethylsulfonyl)-5-(4-fluorophenyl)pyridin-2-yl)-4-(5-(trifluoromethyl)pyridin-2-yl)-5,6-dihydro-4H-1,2,4-oxadiazine]",≥ 80,≥ 80,≥ 80
CCS(=O)(=O)c1cc(-c2ccc(F)cc2)cnc1C1=NC(=COC)C(=O)N1c1ccc(C(F)(F)F)cn1 [Compound 34],–,≥ 80,–
